Assay results reported in patent US20170121322A1, “BET-PROTEIN INHIBITING 3,4-DIHYDROPYRIDO[2,3-B]PYRAZINONES WITH META-SUBSTITUTED AROMATIC AMINO- OR ETHER GROUPS” (Bayer Pharma Aktiengesellschaft, priority 2014, published 2017).

Legend:
B16F10 cells = experiment: Cell proliferation assay B16F10 (alamarBlue); assay type: cell-based; conditions: Mus musculus, B16-F10, melanoma (BRAF wild-type) cells, 96 hours
Experimental: (§1) In accordance with the invention, the ability of the substances to inhibit cell proliferation was determined. Cell viability was determined by means of the alamarBlue® reagent (Invitrogen) in a Victor X3 Multilabel Reader (Perkin Elmer). The excitation wavelength was 530 nm and the emission wavelength […].
The B16F10 cells (ATCC, CRL-6475) were seeded at a concentration of 300-500 cells/well in 100 μl of growth medium (DMEM with phenol red, 10% FCS) on 96-well microtitre plates.
(§2) After overnight incubation at 37° C., the fluorescence values (CI values) were determined. Then the plates were treated with various substance dilutions (1E-5 M, 3E-6 M, 1E-6 M, 3E-7 M, 1E-7 M, 3E-8 M, 1E-8 M) and incubated at 37° C. over 96 hours (MOLM-13, B16F10, CHL-1 cells) or 120 hours (MOLP-8 cells). Subsequently, the fluorescence values were determined (CO values). For the data analysis, the CI values were subtracted from the CO values and the results were compared between cells which had been treated with various dilutions of the substance or only with buffer solution. The IC50 values (substance concentration needed for 50% inhibition of cell proliferation) were calculated therefrom.
(§3) The substances were tested in the cell lines in Table 2, which represent the indications specified by way of example: […]

CHL-1 cells = experiment: Cell proliferation assay CHL-1 (alamarBlue); assay type: cell-based; conditions: Homo sapiens, melanoma (BRAF wild-type) cells, 96 hours
Experimental: as §1
The CHL-1 cells (ATCC, CRL-9446) were seeded at a concentration of 1000 cells/well in 100 μl of growth medium (DMEM with glutamine, 10% FCS) on 96-well microtitre plates.
as §2, §3

[1] = target: T1, BRD4 bromo domain 1 [BRD4(1)] (Homo sapiens, UniProt O60885); experiment: BRD4(1)/acetylated peptide H4 TR-FRET binding assay; conditions: His6-BRD4(1) (aa 67-152) vs acetylated histone H4 peptide
T1 construct: N-terminally His6-tagged BRD4(1) (amino acids 67-152); made in house; host or cells: E. coli
Excerpt: To assess the BRD4(1) binding strength of the substances described in this application, the ability thereof to inhibit the interaction between BRD4(1) and acetylated histone H4 in a dose-dependent manner was quantified.
For this purpose, a time-resolved fluorescence resonance energy transfer (TR-FRET) assay was used, which measures the binding between N-terminally His6-tagged BRD4(1) (amino acids 67-152) and a synthetic acetylated histone H4 (Ac-H4) peptide with sequence GRGK(Ac)GGK(Ac)GLGK(Ac)GGAK(Ac)RHGSGSK-biotin. The recombinant BRD4(1) protein produced in-house according to Filippakopoulos et al., Cell, 2012, 149:214-231 was expressed in E. coli and purified by means of (Ni-NTA) affinity and (Sephadex G-75) size exclusion chromatography. The Ac-H4 peptide can be purchased, for example, from Biosyntan (Berlin, Germany).
In the assay, typically 11 different concentrations of each substance (0.1 nM, 0.33 nM, 1.1 nM, 3.8 nM, 13 nM, 44 nM, 0.15 μM, 0.51 μM, 1.7 μM, 5.9 μM and 20 μM) were analysed as duplicates on the same microtitre plate. For this purpose, 100-fold concentrated solutions in DMSO were prepared by serial dilutions (1:3.4) of a 2 mM stock solution into a clear, 384-well microtitre plate (Greiner Bio-One, Frickenhausen, Germany). From this, 50 nl were transferred into a black test plate (Greiner Bio-One, Frickenhausen, Germany). The test was started by the addition of 2 μl of a 2.5-fold concentrated BRD4(1) solution (final concentration typically 10 nM in the 5 μl of reaction volume) in aqueous assay buffer [50 mM HEPES pH 7.5, 50 mM sodium chloride (NaCl), 0.25 mM CHAPS and 0.05% serum albumin (BSA)] to the substances in the test plate. This was followed by a 10-minute incubation step at 22° C. for the pre-equilibration of putative complexes between BRD4(1) and the substances. Subsequently, 3 μl of a solution of 1.67 times the concentration (in assay buffer) consisting of Ac-H4 peptide (83.5 nM) and TR-FRET detection reagents [16.7 nM anti-6His-XL665 and 3.34 nM streptavidin cryptate (both from Cisbio Bioassays, Codolet, France), and 668 mM potassium fluoride (KF)] were added.
The mixture was then incubated in the dark at 22° C. for one hour and then at 4° C. for at least 3 hours and for no longer than overnight. The formation of BRD4(1)/Ac-H4 complexes was determined by the measurement of the resonance energy transfer from the streptavidin-Eu cryptate to the anti-6His-XL665 antibody present in the reaction. For this purpose, the fluorescence emission was measured at 620 nm and 665 nm after excitation at 330-350 nm in a TR-FRET measuring instrument, for example a Rubystar or Pherastar (both from BMG Lab Technologies, Offenburg, Germany) or a Viewlux (Perkin-Elmer). The ratio of the emissions at 665 nm and at 622 nm was taken as an indicator of the amount of BRD4(1)/Ac-H4 complexes formed.
The data (ratios) obtained were normalized, with 0% inhibition corresponding to the mean from the measurements for a set of controls (typically 32 data points) in which all the reagents were present. In these, in place of test substances, 50 nl of DMSO (100%) were used. Inhibition of 100% corresponded to the mean from the measurements for a set of controls (typically 32 data points) in which all the reagents except BRD4(1) were present. The IC50 was determined by regression analysis based on a 4-parameter equation (minimum, maximum, IC50, Hill; Y=Max+(Min−Max)/(1+(X/IC50)Hill).

MOLM-13 cells = experiment: Cell proliferation assay MOLM-13, method 1 (alamarBlue); assay type: cell-based; conditions: Homo sapiens, acute myeloid leukaemia cells, 4000 cells/well, 96-well, 96 hours
Experimental: as §1
The MOLM-13 cells (DSMZ, ACC 554) were seeded at a concentration of 4000 cells/well in 100 μl of growth medium (RPMI1640, 10% FCS) on 96-well microtitre plates (method 1).
as §2, §3

COc1ccc(S(=O)(=O)C(C)C)cc1Nc1ccc2c(n1)N(C1CCN(CC(F)(F)F)CC1)[C@H](C)C(=O)N2C [Example 28, (3R)-6-{[5-(Isopropylsulphonyl)-2-methoxyphenyl]amino}-1,3-dimethyl-4-[1-(2,2,2-trifluoroethyl)piperidin-4-yl]-3,4-dihydropyrido[2,3-b]pyrazin-2(1H)-one] gave an IC50 (B16F10 cells) of 21 nM, an IC50 (CHL-1 cells) of 25 nM and an IC50 [1] of 24 nM. The IC50 (MOLM-13 cells) was 26 nM.

For CC(C)S(=O)(=O)c1cccc(Nc2ccc3c(n2)N(C2CCN(C)CC2)[C@H](C)C(=O)N3C)c1 [Example 19, (3R)-6-{[3-(Isopropylsulphonyl)phenyl]amino}-1,3-dimethyl-4-(1-methylpiperidin-4-yl)-3,4-dihydropyrido[2,3-b]pyrazin-2(1H)-one], the IC50 (B16F10 cells) was 45 nM, the IC50 (CHL-1 cells) was 17 nM and the IC50 [1] was 15 nM. It also gave an IC50 (MOLM-13 cells) of 13 nM.

For COc1ccc(S(=O)(=O)C2CCOCC2)cc1Nc1ccc2c(n1)N(C1CCN(C)CC1)[C@H](C)C(=O)N2C [Example 22, (3R)-6-{[2-Methoxy-5-(tetrahydro-2H-pyran-4-ylsulphonyl)phenyl]amino}-1,3-dimethyl-4-(1-methylpiperidin-4-yl)-3,4-dihydropyrido[2,3-b]pyrazin-2(1H)-one], the IC50 (B16F10 cells) was 140 nM, the IC50 (CHL-1 cells) was 21 nM and the IC50 [1] was 23 nM. The IC50 (MOLM-13 cells) was 99 nM.

For COc1ccc(S(=O)(=O)C(C)C)cc1Nc1ccc2c(n1)N(C1CCN(CCC(F)(F)F)CC1)[C@H](C)C(=O)N2C [Example 31, (3R)-6-{[5-(Isopropylsulphonyl)-2-methoxyphenyl]amino}-1,3-dimethyl-4-[1-(3,3,3-trifluoropropyl)piperidin-4-yl]-3,4-dihydropyrido[2,3-b]pyrazin-2(1H)-one], the IC50 (CHL-1 cells) was 12 nM, the IC50 [1] was 23 nM and the IC50 (MOLM-13 cells) was 14 nM.

In the case of COc1ccc(S(=O)(=O)C(C)C)cc1Nc1ccc2c(n1)N(C1CCN(CC(F)F)CC1)[C@H](C)C(=O)N2C [Example 29, (3R)-4-[1-(2,2-Difluoroethyl)piperidin-4-yl]-6-{[5-(isopropylsulphonyl)-2-methoxyphenyl]amino}-1,3-dimethyl-3,4-dihydropyrido[2,3-b]pyrazin-2(1H)-one], the IC50 (B16F10 cells) is reported as 40 nM and the IC50 [1] is reported as 24 nM.

In the case of COc1ccc(S(C)(=O)=O)cc1Nc1ccc2c(n1)N(C(C)C)[C@H](C)C(=O)N2C [Example 14, (3R)-4-Isopropyl-6-{[2-methoxy-5-(methylsulphonyl)phenyl]amino}-1,3-dimethyl-3,4-dihydropyrido[2,3-b]pyrazin-2(1H)-one], the IC50 (B16F10 cells) is reported as 248 nM, the IC50 (CHL-1 cells) is reported as 118 nM and the IC50 [1] is reported as 173 nM. It also gave an IC50 (MOLM-13 cells) of 205 nM.

For COc1ccc(S(=O)(=O)C(C)C)cc1Nc1ccc2c(n1)N(C1CCOCC1)[C@H](C)C(=O)N2C [Example 9, (3R)-6-{[5-(Isopropylsulphonyl)-2-methoxyphenyl]amino}-1,3-dimethyl-4-(tetrahydro-2H-pyran-4-yl)-3,4-dihydropyrido[2,3-b]pyrazin-2(1H)-one], the IC50 (B16F10 cells) was 34 nM, the IC50 (CHL-1 cells) was 19 nM and the IC50 [1] was 25 nM. For the same compound, the IC50 (MOLM-13 cells) was 42 nM.

Compound COc1ccc(S(=O)(=O)C2CCOCC2)cc1Nc1ccc2c(n1)N(C1CCOCC1)[C@H](C)C(=O)N2C [Example 34, (3R)-6-{[2-Methoxy-5-(tetrahydro-2H-pyran-4-ylsulphonyl)phenyl]amino}-1,3-dimethyl-4-(tetrahydro-2H-pyran-4-yl)-3,4-dihydropyrido[2,3-b]pyrazin-2(1H)-one] has an IC50 (B16F10 cells) of 32 nM, an IC50 (CHL-1 cells) of 30 nM and an IC50 [1] of 22 nM. The IC50 (MOLM-13 cells) was 32 nM.

COc1ccc(S(=O)(=O)C2CC2)cc1Nc1ccc2c(n1)N(C(C)C)[C@H](C)C(=O)N2C [Example 15, (3R)-6-{[5-(Cyclopropylsulphonyl)-2-methoxyphenyl]amino}-4-isopropyl-1,3-dimethyl-3,4-dihydropyrido[2,3-b]pyrazin-2(1H)-one] showed an IC50 (B16F10 cells) of 132 nM, an IC50 (CHL-1 cells) of 52 nM and an IC50 [1] of 73 nM. The IC50 (MOLM-13 cells) was 149 nM.

COc1ccc(S(=O)(=O)C(C)C)cc1Nc1ccc2c(n1)N(C(C)C)[C@H](C)C(=O)N2C [Example 16, (3R)-4-Isopropyl-6-{[5-(isopropylsulphonyl)-2-methoxyphenyl]amino}-1,3-dimethyl-3,4-dihydropyrido[2,3-b]pyrazin-2(1H)-one] gave an IC50 (B16F10 cells) of 180 nM, an IC50 (CHL-1 cells) of 76 nM and an IC50 [1] of 88 nM. The IC50 (MOLM-13 cells) was 184 nM.

With COc1ccc(S(C)(=O)=O)cc1Nc1ccc2c(n1)N(C1CCNCC1)[C@H](C)C(=O)N2C [Example 27, (3R)-6-{[2-Methoxy-5-(methylsulphonyl)phenyl]amino}-1,3-dimethyl-4-(piperidin-4-yl)-3,4-dihydropyrido[2,3-b]pyrazin-2(1H)-one] the IC50 (CHL-1 cells) was 311 nM, the IC50 [1] was 54 nM and the IC50 (MOLM-13 cells) was 69 nM.

COc1ccc(S(=O)(=O)C(F)(F)F)cc1Nc1ccc2c(n1)N(C1CCN(C)CC1)[C@H](C)C(=O)N2C [Example 21, (3R)-6-({2-Methoxy-5-[(trifluoromethyl)sulphonyl]phenyl}amino)-1,3-dimethyl-4-(1-methylpiperidin-4-yl)-3,4-dihydropyrido[2,3-b]pyrazin-2(1H)-one] showed an IC50 (B16F10 cells) of 52 nM, an IC50 (CHL-1 cells) of 16 nM and an IC50 [1] of 23 nM. It also gave an IC50 (MOLM-13 cells) of 16 nM.

Work on COc1ccc(S(=O)(=O)C(F)(F)F)cc1Nc1ccc2c(n1)N(C1CCOCC1)[C@H](C)C(=O)N2C [Example 39, (3R)-6-({2-Methoxy-5-[(trifluoromethyl)sulphonyl]phenyl}amino)-1,3-dimethyl-4-(tetrahydro-2H-pyran-4-yl)-3,4-dihydropyrido[2,3-b]pyrazin-2(1H)-one] yielded an IC50 (B16F10 cells) of 84 nM, an IC50 [1] of 46 nM and an IC50 (MOLM-13 cells) of 137 nM.

COc1cc(Nc2ccc3c(n2)N(C2CCOCC2)[C@H](C)C(=O)N3C)cc(S(C)(=O)=O)c1 [Example 40, (3R)-6-{[3-Methoxy-5-(methylsulphonyl)phenyl]amino}-1,3-dimethyl-4-(tetrahydro-2H-pyran-4-yl)-3,4-dihydropyrido[2,3-b]pyrazin-2(1H)-one] was tested, and the IC50 (B16F10 cells) was 269 nM, the IC50 [1] was 63 nM and the IC50 (MOLM-13 cells) was 121 nM.
